Data from patent publication US20240228973A9, “NON-ALCOHOLIC FATTY LIVER ARTIFICIAL TISSUE MODEL” (CELLARTGEN INC., priority 2021, published 2024).

Key:
normal liver organoids = test: Viability of normal liver organoids treated with the drug (cytotoxicity); type: cell-based, human
Experimental: Also, when the viability of the normal liver organoids treated with the drug was analyzed to evaluate the cytotoxicity depending on the concentration of the drug, it was confirmed that the viability was 80% or more at 1 μM, 70% at 10 μM, and about 60% at 100 μM (FIG. 15B). That is, it was confirmed that liver toxicity increased as the treatment concentration of OCA increased.
(§1) Also, when the viability of the normal liver organoids treated with the drug was analyzed to evaluate the cytotoxicity depending on the concentration of the drug, it was confirmed that the viability was 70% or more at 1 μM to 10 μM and about 50% at 100 μM (FIG. 16B).
as §1, with “not affected at a concentration of up to 1 μM, and it was 80%” for “70%”, “at” for “at 1 μM to”, “60%” for “50%”, “17B).” for “16B).”

[1] = tested on: human tissue-derived non-alcoholic steatohepatitis (NASH) liver organoids; test: Drug efficacy evaluation in human tissue-derived NASH liver organoids co-cultured with EC, KC and HSC in LEM-Chip; type: cell-based
Description: (§2) Steatohepatitis (NASH) was induced in liver organoids in which a liver tissue microenvironment [vascular endothelial cells (E)+Kupffer cells (K)+hepatic stellate cells (S)] was constructed under culture conditions in which the decellularized liver tissue-derived LEM scaffold and the multiwell microfluidic device were combined, followed by treatment with obeticholic acid (OCA) at different concentrations. OCA (Obeticholic acid) is a semi-synthetic bile acid analogue that has conventionally been used to treat cholangitis and is a drug candidate whose efficacy has recently been verified in non-alcoholic steatohepatitis clinical trials. The NASH group was treated with 800 μM fatty acid for 3 days to induce a disease, and the NASH+OCA group was treated with 800 μM fatty acid and the corresponding drug for 3 days at different concentrations.
as §2, with “ezetimibe (Eze)” for “obeticholic acid (OCA)”, “Eze (Ezetimibe)” for “OCA (Obeticholic acid)”, “cholesterol absorption inhibitor and is a drug candidate” for “semi-synthetic bile acid analogue”, “hyperglycemic cholesterol” for “cholangitis”, “lipid abnormalities.” for “is a drug candidate whose efficacy has recently been verified in non-alcoholic steatohepatitis clinical trials.”, “NASH+Eze” for “NASH+OCA”
as §2, with “dapagliflozin (DAPA)” for “obeticholic acid (OCA)”, “DAPA (Dapagliflozin)” for “OCA (Obeticholic acid)”, “sodium-glucose transporter inhibitor and is a drug candidate” for “semi-synthetic bile acid analogue”, “diabetes.” for “cholangitis and is a drug candidate whose efficacy has recently been verified in non-alcoholic steatohepatitis clinical trials.”, “NASH+DAPA” for “NASH+OCA”

[2] = 800 μM fatty acid + drug for 3 days at different concentrations
[3] = drug concentration of 10 μM or more

SMILES | viability of the normal liver organoids (normal liver organoids; 10 μM drug) [%] | viability of the normal liver organoids (normal liver organoids; 100 μM drug) | viability of the normal liver organoids (normal liver organoids; concentration of up to 1 μM) | amount of fat accumulation [1, 2] | morphology and structure of the organoid [1, 2] | expression of the fibrosis marker, quantitative PCR [1, 3] | expression of the inflammation marker, quantitative PCR [1, 3] | expression of fibrosis-related marker (SMA), quantitative PCR ([1]; vs NASH group, 3 days) | expression of inflammation-related marker (TNFα), quantitative PCR ([1]; vs NASH group, 3 days) | viability of the normal liver organoids (normal liver organoids; 1 μM to 10 μM drug) [%] | viability of the normal liver organoids (normal liver organoids; 1 μM drug) [%] | liver toxicity (normal liver organoids; as the treatment concentration increased)
CCOc1ccc(Cc2cc([C@@H]3O[C@H](CO)[C@@H](O)[C@H](O)[C@H]3O)ccc2Cl)cc1 [DAPA, dapagliflozin] | ≥ 80 | about 60% | not affected |  |  |  |  |  |  |  |  | 
O=C1[C@H](CC[C@H](O)c2ccc(F)cc2)[C@@H](c2ccc(O)cc2)N1c1ccc(F)cc1 [Eze, ezetimibe] |  | about 50% |  | reduced as the concentration increased | recovered | decreased to a level similar to that in the normal organoid | decreased to a level similar to that in the normal organoid | decreased | decreased | ≥ 70 |  | 
CC[C@H]1[C@@H](O)[C@@H]2[C@H](CC[C@]3(C)[C@@H]([C@H](C)CCC(=O)O)CC[C@@H]23)[C@@]2(C)CC[C@@H](O)C[C@@H]12 [OCA, obeticholic acid] | 70 | about 60% |  |  |  |  |  |  |  |  | ≥ 80 | increased
